Assay results from the CheMixHub viscosity set.

Assay: xn = mol fraction of the nth substance listed

CCCCCCn1cc[n+](C)c1.F[B-](F)(F)F + CC(C)O
101 kPa
Conditions	viscosity [mPa·s]
293.15 K, x1 = 0.7711	78.36
313.15 K, x1 = 0.08354	1.965
323.15 K, x1 = 0.238	3.035
323.15 K, x1 = 0.8507	28.15

COC(=O)OC + CC(C)O
101.3 kPa
Conditions	viscosity [mPa·s]
293.15 K, x1 = 0.0526	1.968
293.15 K, x1 = 0.0934	1.706
293.15 K, x1 = 0.2033	1.212
293.15 K, x1 = 0.3129	0.943
293.15 K, x1 = 0.4065	0.817
293.15 K, x1 = 0.5	0.74
293.15 K, x1 = 0.6079	0.686
293.15 K, x1 = 0.7026	0.647
293.15 K, x1 = 0.8048	0.609
293.15 K, x1 = 0.9008	0.593
293.15 K, x1 = 0.9507	0.601
298.15 K, x1 = 0.0498	1.733
298.15 K, x1 = 0.0979	1.454
298.15 K, x1 = 0.2031	1.046
298.15 K, x1 = 0.2999	0.844
298.15 K, x1 = 0.3972	0.74
298.15 K, x1 = 0.4892	0.69
298.15 K, x1 = 0.5938	0.654
298.15 K, x1 = 0.6971	0.625
298.15 K, x1 = 0.7983	0.589
298.15 K, x1 = 0.9012	0.567
298.15 K, x1 = 0.9451	0.567
303.15 K, x1 = 0.0437	1.537
303.15 K, x1 = 0.1028	1.287
303.15 K, x1 = 0.2013	0.992
303.15 K, x1 = 0.3062	0.802
303.15 K, x1 = 0.384	0.713
303.15 K, x1 = 0.4951	0.642
303.15 K, x1 = 0.5998	0.606
303.15 K, x1 = 0.7053	0.581
303.15 K, x1 = 0.8047	0.562
303.15 K, x1 = 0.9062	0.545
303.15 K, x1 = 0.937	0.542
313.15 K, x1 = 0.0507	1.147
313.15 K, x1 = 0.0997	1.005
313.15 K, x1 = 0.1984	0.799
313.15 K, x1 = 0.2975	0.668
313.15 K, x1 = 0.4001	0.592
313.15 K, x1 = 0.4884	0.553
313.15 K, x1 = 0.5959	0.522
313.15 K, x1 = 0.7017	0.506
313.15 K, x1 = 0.8014	0.494
313.15 K, x1 = 0.9053	0.49
313.15 K, x1 = 0.9492	0.491

CNc1ccccc1 + CCC(=O)O
308.15 K, 101.33 kPa
Conditions	viscosity [mPa·s]
x2 = 0.1405	1.689
x2 = 0.2649	1.817
x2 = 0.3831	1.959
x2 = 0.4886	2.058
x2 = 0.5912	2.143
x2 = 0.6846	2.115
x2 = 0.7714	1.931
x2 = 0.8525	1.631
x2 = 0.8913	1.45
x2 = 0.9291	1.226
x2 = 0.9645	1.053

COC(=O)OC + CCC(C)O
101.3 kPa
Conditions	viscosity [mPa·s]
293.15 K, x1 = 0.0505	2.908
293.15 K, x1 = 0.0986	2.37
293.15 K, x1 = 0.2131	1.522
293.15 K, x1 = 0.2801	1.235
293.15 K, x1 = 0.4092	0.94
293.15 K, x1 = 0.511	0.83
293.15 K, x1 = 0.6172	0.753
293.15 K, x1 = 0.7072	0.696
293.15 K, x1 = 0.7997	0.637
293.15 K, x1 = 0.8229	0.621
293.15 K, x1 = 0.9518	0.595
298.15 K, x1 = 0.0572	2.399
298.15 K, x1 = 0.0994	1.991
298.15 K, x1 = 0.1958	1.354
298.15 K, x1 = 0.3029	0.991
298.15 K, x1 = 0.3339	0.926
298.15 K, x1 = 0.5075	0.756
298.15 K, x1 = 0.6051	0.707
298.15 K, x1 = 0.7037	0.641
298.15 K, x1 = 0.808	0.569
298.15 K, x1 = 0.9046	0.531
298.15 K, x1 = 0.9523	0.542
303.15 K, x1 = 0.0573	1.931
303.15 K, x1 = 0.0842	1.728
303.15 K, x1 = 0.1936	1.195
303.15 K, x1 = 0.2981	0.943
303.15 K, x1 = 0.3926	0.809
303.15 K, x1 = 0.4938	0.709
303.15 K, x1 = 0.59	0.632
303.15 K, x1 = 0.6561	0.594
303.15 K, x1 = 0.7945	0.549
303.15 K, x1 = 0.8916	0.547
303.15 K, x1 = 0.9483	0.546
313.15 K, x1 = 0.0498	1.512
313.15 K, x1 = 0.1005	1.289
313.15 K, x1 = 0.2009	0.975
313.15 K, x1 = 0.2952	0.795
313.15 K, x1 = 0.4047	0.669
313.15 K, x1 = 0.5109	0.6
313.15 K, x1 = 0.6072	0.561
313.15 K, x1 = 0.6982	0.529
313.15 K, x1 = 0.7992	0.502
313.15 K, x1 = 0.8977	0.486
313.15 K, x1 = 0.9583	0.486

ClC(Cl)C(Cl)Cl + CCCC(=O)OCC
viscosity [mPa·s], 101.3 kPa
Conditions	308.15 K	318.15 K
x2 = 0.0477	1.326	1.209
x2 = 0.1018	1.243	1.135
x2 = 0.2004	1.11	1.019
x2 = 0.2603	1.04	0.957
x2 = 0.3965	0.906	0.837
x2 = 0.4979	0.824	0.764
x2 = 0.6073	0.753	0.699
x2 = 0.6955	0.701	0.652
x2 = 0.8023	0.649	0.605
x2 = 0.9007	0.61	0.569
x2 = 0.9705	0.585	0.547

COC(=O)OC + CCCCCC
Conditions	viscosity [mPa·s]
298.15 K, 101 kPa, x1 = 0.0961	0.2912

COCCOCCOC + CCCCCC
viscosity [mPa·s], 101.33 kPa
Conditions	x1 = 0.1017	x1 = 0.2006	x1 = 0.3006	x1 = 0.3974	x1 = 0.4983	x1 = 0.4984	x1 = 0.5986	x1 = 0.6954	x1 = 0.8011	x1 = 0.8957
298.15 K	0.326	0.362	0.407	0.455	–	0.52	0.584	0.662	0.761	0.868
303.15 K	0.31	0.344	0.385	0.43	–	0.49	0.548	0.62	0.71	0.806
308.15 K	0.294	0.324	0.362	0.404	0.461	–	0.512	0.576	0.657	0.75
313.15 K	0.28	0.308	0.345	0.383	0.434	–	0.482	0.541	0.616	0.699
318.15 K	0.268	0.285	0.326	0.363	0.41	–	0.457	0.511	0.579	0.657

ClC(Cl)C(Cl)Cl + CCCCCC
303.15 K, 101 kPa
Conditions	viscosity [mPa·s]
x1 = 0.115	0.316
x1 = 0.2303	0.363
x1 = 0.2991	0.411
x1 = 0.4277	0.516
x1 = 0.5521	0.633
x1 = 0.6234	0.71
x1 = 0.7182	0.83
x1 = 0.8039	0.966
x1 = 0.8856	1.133
x1 = 0.9344	1.256

COCCOCCOC + CCCCCCC
viscosity [mPa·s], 101.33 kPa
Conditions	x1 = 0.0978	x1 = 0.197	x1 = 0.2958	x1 = 0.3834	x1 = 0.4946	x1 = 0.594	x1 = 0.6956	x1 = 0.7955	x1 = 0.8992
298.15 K	0.407	0.436	0.471	0.508	0.562	0.619	0.689	0.768	0.871
303.15 K	0.386	0.412	0.444	0.478	0.527	0.58	0.643	0.714	0.807
308.15 K	0.367	0.39	0.421	0.451	0.5	0.545	0.602	0.668	0.751
313.15 K	0.351	0.371	0.398	0.426	0.468	0.513	0.566	0.627	0.7
318.15 K	0.333	0.354	0.378	0.404	0.443	0.484	0.532	0.587	0.656

ClC(Cl)C(Cl)Cl + CCCCCCC
303.15 K, 101 kPa
Conditions	viscosity [mPa·s]
x1 = 0.1397	0.398
x1 = 0.2476	0.472
x1 = 0.3744	0.564
x1 = 0.4722	0.643
x1 = 0.5731	0.727
x1 = 0.6565	0.8
x1 = 0.7428	0.896
x1 = 0.8309	1.023
x1 = 0.9008	1.165
x1 = 0.9406	1.267

COC(=O)OC + CCCCCCCC
298.15 K, 101.3 kPa
Conditions	viscosity [mPa·s]
x1 = 0.0701	0.503
x1 = 0.1113	0.495
x1 = 0.2006	0.483
x1 = 0.2669	0.476
x1 = 0.2955	0.476
x1 = 0.4863	0.481
x1 = 0.6318	0.494
x1 = 0.6706	0.499
x1 = 0.7712	0.517
x1 = 0.8602	0.543
x1 = 0.9459	0.569

COCCOCCOC + CCCCCCCC
viscosity [mPa·s], 101.33 kPa
Conditions	x1 = 0.0946	x1 = 0.203	x1 = 0.2985	x1 = 0.3956	x1 = 0.4955	x1 = 0.5945	x1 = 0.697	x1 = 0.7972	x1 = 0.8977
298.15 K	0.515	0.535	0.561	0.594	0.636	0.681	0.748	0.807	0.884
303.15 K	0.485	0.503	0.536	0.557	0.593	0.636	0.686	0.746	0.82
308.15 K	0.458	0.475	0.501	0.523	0.556	0.596	0.641	0.695	0.762
313.15 K	0.432	0.448	0.473	0.493	0.524	0.559	0.604	0.65	0.712
318.15 K	0.41	0.425	0.446	0.466	0.493	0.523	0.575	0.61	0.667

ClC(Cl)C(Cl)Cl + CCCCCCCC
303.15 K, 101 kPa
Conditions	viscosity [mPa·s]
x1 = 0.1642	0.536
x1 = 0.2409	0.562
x1 = 0.3162	0.61
x1 = 0.3944	0.655
x1 = 0.4996	0.725
x1 = 0.5896	0.794
x1 = 0.6696	0.864
x1 = 0.7658	0.976
x1 = 0.8847	1.167
x1 = 0.9045	1.208
